PubChem BioAssay (NCI)
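Values below derive from 48-hour exposures of cells grown in 96-well plates, with endpoints linearly interpolated between the two concentrations bracketing the appropriate inhibition level. GI50 = concentration required for 50% inhibition of growth. TGI marks complete inhibition of growth.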

Assays:
Assay in all cases: DTP human tumour cell line panel, 48 h
[1] = system: NCI-H522 lung
[2] = system: MDA-MB-435
[3] = system: IGROV1 ovarian
[4] = system: SNB-75 CNS
[5] = system: UACC-62 melanoma
[6] = system: HCT-116 colon
[7] = system: OVCAR-4 ovarian
[8] = system: K-562 leukemia
[9] = system: MALME-3M melanoma
[10] = system: A549 NSCLC
[11] = system: U251 CNS
[12] = system: M14 melanoma
[13] = system: SN12C renal
[14] = system: SK-OV-3 ovarian
[15] = system: SF-539 CNS
[16] = system: HCT-15 colon
[17] = system: OVCAR-3 ovarian
[18] = system: NCI-H460 lung
[19] = system: MOLT-4 leukemia
[20] = system: COLO 205 colon
[21] = system: RPMI-8226 leukemia
[22] = system: SF-268 CNS
[23] = system: OVCAR-8 ovarian
[24] = system: NCI-H23 lung
[25] = system: HOP-62 NSCLC
[26] = system: UO-31 renal
[27] = system: TK-10 renal
[28] = system: HT29 colon
[29] = system: EKVX NSCLC
[30] = system: NCI/ADR-RES ovarian
[31] = system: SNB-19 CNS
[32] = system: SW-620 colon
[33] = system: NCI-H226 lung
[34] = system: SR leukemia
[35] = system: SK-MEL-28 melanoma
[36] = system: HS 578T breast
[37] = system: OVCAR-5 ovarian
[38] = system: SK-MEL-2 melanoma
[39] = system: PC-3 prostate
[40] = system: CCRF-CEM leukemia
[41] = system: HL-60(TB) leukemia
[42] = system: A498 renal
[43] = system: BT-549 breast
[44] = system: MCF7 breast
[45] = system: CAKI-1 renal
[46] = system: T-47D breast
[47] = system: UACC-257 melanoma
[48] = system: HOP-92 NSCLC
[49] = system: MDA-MB-231 breast
[50] = system: DU-145 prostate
[51] = system: KM12 colon
[52] = system: SF-295 CNS
[53] = system: SK-MEL-5 melanoma
[54] = system: RXF 393 renal
[55] = system: 786-0 renal
[56] = system: ACHN renal
[57] = system: HCC-2998 colon
[58] = system: LOX IMVI melanoma

C[C@H](NC(=O)[C@@H]1CSSC[C@@H](NC(=O)c2nc3ccccc3cc2O)C(=O)NCC(=O)N1C)c1ccccc1
GI50 [1]: 3.13 µM | TGI [1]: 10.2 µM | GI50 [2]: 0.737 µM | TGI [2]: 6.59 µM | GI50 [3]: 2.59 µM | TGI [3]: 12.4 µM | GI50 [4]: 7.62 µM | TGI [4]: 43.1 µM | GI50 [5]: 5.6 µM | TGI [5]: 13.2 µM | GI50 [6]: 1.63 µM | TGI [6]: 5.15 µM | GI50 [7]: 7.95 µM | TGI [7]: 18.3 µM | GI50 [8]: 0.663 µM | TGI [8]: 3.13 µM | GI50 [9]: 6.08 µM | TGI [9]: 14 µM | GI50 [10]: 7.06 µM | TGI [10]: 15.8 µM | GI50 [11]: 2.38 µM | TGI [11]: 7.46 µM | GI50 [12]: 0.318 µM | TGI [12]: 9.76 µM | GI50 [13]: 5.62 µM | TGI [13]: 14.1 µM | GI50 [14]: 5.59 µM | TGI [14]: 21.2 µM | GI50 [15]: 1.63 µM | TGI [15]: 9.13 µM | GI50 [16]: 2.55 µM | TGI [16]: 9.62 µM | GI50 [17]: 0.584 µM | TGI [17]: 1.35 µM | GI50 [18]: 1.25 µM | TGI [18]: 7.98 µM | GI50 [19]: 0.894 µM | TGI [19]: 3.27 µM | GI50 [20]: 0.963 µM | TGI [20]: 2.34 µM | GI50 [21]: 5.67 µM | TGI [21]: 21.5 µM | GI50 [22]: 0.43 µM | TGI [22]: 11 µM | GI50 [23]: 5.16 µM | TGI [23]: 17.7 µM | GI50 [24]: 5.14 µM | TGI [24]: 12.6 µM | GI50 [25]: 11.6 µM | TGI [25]: 20.7 µM | GI50 [26]: 5.76 µM | TGI [26]: 13.3 µM | GI50 [27]: 8.06 µM | TGI [27]: 15.5 µM | GI50 [28]: 1.13 µM | TGI [28]: 3.35 µM | GI50 [29]: 3.48 µM | TGI [29]: 11.8 µM | GI50 [30]: 11 µM | TGI [30]: 50 µM | GI50 [31]: 7.24 µM | TGI [31]: 19.4 µM | GI50 [32]: 1.85 µM | TGI [32]: 6.26 µM | GI50 [33]: 8.87 µM | TGI [33]: 17.4 µM | GI50 [34]: 0.17 µM | TGI [34]: 0.877 µM | GI50 [35]: 0.906 µM | TGI [35]: 9.83 µM | GI50 [36]: 11.2 µM | TGI [36]: 34.1 µM | GI50 [37]: 4.35 µM | TGI [37]: 12.1 µM | GI50 [38]: 2.55 µM | TGI [38]: 10.1 µM | GI50 [39]: 5.98 µM | TGI [39]: 13.5 µM | GI50 [40]: 1.89 µM | TGI [40]: 10.5 µM | GI50 [41]: 1.2 µM | TGI [41]: 4.78 µM | GI50 [42]: 15 µM | TGI [42]: 33.5 µM | GI50 [43]: 6.88 µM | TGI [43]: 16.1 µM | GI50 [44]: 0.835 µM | TGI [44]: 2.47 µM | GI50 [45]: 7.24 µM | TGI [45]: 18.5 µM | GI50 [46]: 1.11 µM | TGI [46]: 3.79 µM | GI50 [47]: 7.63 µM | TGI [47]: 24.6 µM | GI50 [48]: 9.69 µM | TGI [48]: 18.6 µM | GI50 [49]: 1.94 µM | TGI [49]: 7.84 µM | GI50 [50]: 5.78 µM | TGI [50]: 12.7 µM | GI50 [51]: 0.629 µM | TGI [51]: 8.56 µM | GI50 [52]: 7.44 µM | TGI [52]: 16.3 µM | GI50 [53]: 0.582 µM | TGI [53]: 3.82 µM | GI50 [54]: 1.31 µM | TGI [54]: 3.06 µM | GI50 [55]: 2.45 µM | TGI [55]: 9.78 µM | GI50 [56]: 4.63 µM | TGI [56]: 12.8 µM | GI50 [57]: 7.48 µM | TGI [57]: 17.1 µM | GI50 [58]: 0.649 µM | TGI [58]: 1.52 µM

CC(C)CNCC(O)COc1ccc(C(C)(C)c2ccc(OCC(O)CNCC(C)C)cc2)cc1 (stereo not drawn)
GI50 [1]: 1.87 µM | TGI [1]: 3.82 µM | GI50 [2]: 1.73 µM | TGI [2]: 3.29 µM | GI50 [3]: 3.66 µM | TGI [3]: 15.5 µM | GI50 [4]: 4 µM | TGI [4]: 18.2 µM | GI50 [5]: 1.82 µM | TGI [5]: 3.4 µM | GI50 [6]: 1.79 µM | TGI [6]: 3.59 µM | GI50 [7]: 6.52 µM | TGI [7]: 21.4 µM | GI50 [9]: 1.71 µM | TGI [9]: 3.32 µM | GI50 [10]: 2.08 µM | TGI [10]: 4.84 µM | GI50 [11]: 1.55 µM | TGI [11]: 2.91 µM | GI50 [12]: 1.76 µM | TGI [12]: 3.43 µM | GI50 [13]: 4.82 µM | TGI [13]: 18.3 µM | GI50 [14]: 4.09 µM | TGI [14]: 15.3 µM | GI50 [15]: 1.71 µM | TGI [15]: 3.23 µM | GI50 [16]: 2.2 µM | TGI [16]: 7.35 µM | GI50 [17]: 1.92 µM | TGI [17]: 4.15 µM | GI50 [18]: 1.97 µM | TGI [18]: 4.11 µM | GI50 [19]: 2.03 µM | TGI [19]: 5.16 µM | GI50 [20]: 1.59 µM | TGI [20]: 3.24 µM | GI50 [21]: 1.88 µM | TGI [21]: 4.42 µM | GI50 [22]: 3.9 µM | TGI [22]: 17.4 µM | GI50 [23]: 2.01 µM | TGI [23]: 4.42 µM | GI50 [24]: 11.7 µM | TGI [24]: 25.5 µM | GI50 [25]: 2.92 µM | TGI [25]: 11.7 µM | GI50 [26]: 1.53 µM | TGI [26]: 2.89 µM | GI50 [27]: 2.03 µM | TGI [27]: 5.32 µM | GI50 [28]: 1.62 µM | TGI [28]: 3.26 µM | GI50 [29]: 3.78 µM | TGI [29]: 17.8 µM | GI50 [30]: 7.63 µM | TGI [30]: 21.4 µM | GI50 [31]: 3.15 µM | TGI [31]: 10.9 µM | GI50 [32]: 1.72 µM | TGI [32]: 3.46 µM | GI50 [33]: 8.27 µM | TGI [33]: 26.2 µM | GI50 [34]: 2.02 µM | TGI [34]: 4.39 µM | GI50 [35]: 1.8 µM | TGI [35]: 3.69 µM | GI50 [36]: 5 µM | TGI [36]: 21.9 µM | GI50 [37]: 6.1 µM | TGI [37]: 20.2 µM | GI50 [38]: 1.81 µM | TGI [38]: 3.57 µM | GI50 [39]: 2.3 µM | TGI [39]: 7.02 µM | GI50 [40]: 2.38 µM | TGI [40]: 6.18 µM | GI50 [41]: 1.86 µM | TGI [41]: 3.76 µM | GI50 [42]: 11.3 µM | TGI [42]: 25.1 µM | GI50 [43]: 7.82 µM | TGI [43]: 21 µM | GI50 [44]: 1.73 µM | TGI [44]: 3.48 µM | GI50 [46]: 1.63 µM | TGI [46]: 3.63 µM | GI50 [47]: 1.73 µM | TGI [47]: 3.26 µM | GI50 [48]: 1.48 µM | TGI [48]: 9.17 µM | GI50 [49]: 1.5 µM | TGI [49]: 3.25 µM | GI50 [50]: 2.46 µM | TGI [50]: 7.49 µM | GI50 [51]: 2.38 µM | TGI [51]: 7.41 µM | GI50 [52]: 2.36 µM | TGI [52]: 6.68 µM | GI50 [53]: 1.68 µM | TGI [53]: 3.05 µM | GI50 [54]: 1.66 µM | TGI [54]: 3.67 µM | GI50 [55]: 1.5 µM | TGI [55]: 3.03 µM | GI50 [56]: 1.82 µM | TGI [56]: 3.41 µM | GI50 [57]: 2.02 µM | TGI [57]: 4.26 µM | GI50 [58]: 1.57 µM | TGI [58]: 3.04 µM
